Our source for the emission maximum values is the Deep4Chem optical property database.

A short description of this data set: solvent given as SMILES.
Where [1] appears, read: in c1cc(-n2c3ccccc3c3ccccc32)cc(-n2c3ccccc3c3ccccc32)c1.

With `CC(C)(C)c1ccc2c(c1)c1cc(C(C)(C)C)ccc1n2-c1ccc(-c2ccc3c(c2)C2(c4cc(-c5ccc(-n6c7ccc(C(C)(C)C)cc7c7cc(C(C)(C)C)ccc76)cc5)ccc4-3)c3ccccc3S(=O)(=O)c3ccccc32)cc1`, the emission maximum runs as follows: (in ClCCl) 449 nm; under setting [1], 434 nm.

In the case of `CN(C)c1ccc2c3c(ccc2c1)C(=O)CCC3`, the emission maximum reads like this: (in C1CCCCC1) 407 nm; (in CC#N) 448 nm; (in CC(C)O) 482 nm; (in CCC(C)=O) 443 nm; (in CCO) 489 nm; (in CCOC(C)=O) 429 nm. Moreover, the emission maximum reads like this: (in CS(C)=O) 453 nm; (in Cc1ccccc1) 417 nm; (in ClCCl) 440 nm; (in Clc1ccccc1) 423 nm.

`CSC1=C(C)C2=C(c3ccc(C)cc3)c3c(C)c(Cl)c(C)n3[B-](F)(F)[N+]2=C1C` registered an emission maximum (in C1CCOC1) of 655 nm.

Take `CCN1c2ccc(/C=N/Nc3ccccn3)cc2Sc2cc(-c3ccccc3)ccc21`: the emission maximum (in C1CCOC1) is on record as 487 nm, the emission maximum (in CS(C)=O) stood at 503 nm, the emission maximum (in Cc1ccccc1) was 485 nm and the emission maximum (in ClCCl) was 497 nm.

For `CCCCCCN1C(=O)c2cccc3c(-c4ccc(C)s4)ccc(c23)C1=O`, the emission maximum (in ClC(Cl)Cl) turned out to be 482 nm.

Under “in Cc1ccccc1”, `CC(C)(C)c1ccc(N2c3ccc(C(C)(C)C)cc3B3c4cc(C(C)(C)C)ccc4N(c4ccc(C(C)(C)C)cc4)c4cc(-n5c6ccc(C(C)(C)C)cc6c6cc(C(C)(C)C)ccc65)cc2c43)cc1` yielded an emission maximum of 470 nm.

In turn, `COc1ccc2c(c1)CCc1c(-c3ccccc3)c3n(c1-2)[B-](F)(F)[N+]1=C2C=NC=CN2[B-](F)(F)[N+]1=C3` yielded an emission maximum (in ClCCl) of 576 nm.

`O=c1cc2c(S(=O)(=O)O)c(O)c3cccc4ccc(o1)c2c43` gave an emission maximum (in CC1CCCO1) of 472 nm.

For `CC[N+]1(CC)CN2C(=N1)C(C(=O)O)=Cc1cc(OC)ccc12`, the emission maximum (in O) came out at 491 nm.

Consider `CN(C)c1ccc(-c2cc(-c3ccc(N(C)C)cc3)ncn2)cc1`, for which the emission maximum (in ClCCl) came out at 429 nm.

`FC(F)(F)c1ccc(-c2nc(-c3ccc(C(F)(F)F)cc3)n3ccccc23)cc1`: the emission maximum (in ClC(Cl)Cl) came to 480 nm.

Take `O=C1OC(c2ccccc2)=N/C1=C\c1ccccc1`: the emission maximum (in C1COCCO1) is 447 nm.

For `Cc1ccc(-c2ccc(/C=C/c3ccc([N+](=O)[O-])cc3)cn2)nc1`, where the note is “in CC#N”, the emission maximum was 551 nm.

As for `CCOC(=O)c1ccc(/C=C/C2=[N+]3C(=C(c4ccccc4)c4ccc(/C=C/c5ccc(C(=O)OCC)o5)n4[B-]3(F)F)C=C2)o1`, the emission maximum (in ClC(Cl)Cl) is given as 681 nm.

As for `COc1ccc(C2=CC(c3ccc(OC)cc3)=[O+][B-](C(C)=O)(C(C)=O)O2)cc1`, the emission maximum runs as follows: (in CC#N) 435 nm; (in ClC(Cl)(Cl)Cl) 420 nm.

Turning to `COc1ccccc1C1=[N+]2C(=C(c3ccccc3)c3c4c(c(-c5ccccc5OC)n3[B-]2(F)F)C2CCC4CC2)C2=C1C1CCC2CC1`, where the note is “in ClCCl”, the emission maximum is given as 583 nm.

`c1ccc2c(c1)Sc1ccccc1N2c1ccc2c(c1)C1(CC1)c1cc(N3c4ccccc4Sc4ccccc43)ccc1-2`: the emission maximum (in Cc1ccccc1) was 494 nm.

On to `CC1(C)Nc2cc3nc4cc(Br)c(Br)cc4nc3cc2N1`, for which the emission maximum (in CCO) was 508 nm.

Turning to `CC(C)Oc1ccc(C#Cc2ccc3ccc(=O)oc3c2)cc1`, the emission maximum (in CC#N) was 470 nm.

The molecule `Cc1ccc(C2=C3C=CC([Se]c4ccccc4)=[N+]3[B-](F)(F)n3c([Se]c4ccccc4)ccc32)cc1` showed an emission maximum (in C1CCOC1) of 609 nm.

For the molecule `CCCCC1(CCCC)c2ccccc2-c2ccc(-c3c4c(nc5ccccc35)-c3cc5c(cc3CC4)-c3nc4ccccc4c(-c4ccc6c(c4)C(CCCC)(CCCC)c4ccccc4-6)c3CC5)cc21`, under “in ClC(Cl)Cl”, the emission maximum stood at 385 nm.

For `Cc1cc(=O)oc2cc(/[NH+]=C/C=C3/C=C(C(=O)O)NC(C(=O)O)C3)ccc12` (stereo unspecified), the emission maximum (in O) is listed as 570 nm.

As for `COc1ccc(/C=C/c2ccc(-c3nnc(-c4ccc(-c5cc6ccccc6s5)cc4)o3)cc2)cc1`, the emission maximum by setting is: (in CC#N) 441 nm; (in CC(C)=O) 449 nm; (in CCCCCCCC) 407 nm; (in CCCCCCCCCCO) 427 nm; (in CCCCCCCCO) 433 nm; (in CCCCCO) 436 nm. Further, the emission maximum by setting is: (in CCCO) 438 nm; (in CN(C)C=O) 463 nm; (in CO) 445 nm; (in CS(C)=O) 459 nm.

`COC(=O)c1nc(Cl)c(-c2ccccc2)o1` had an emission maximum (in C1CCCCC1) of 344 nm.

`CCN(C(C)=O)c1cc2c(cc1C)C(c1ccccc1C(=O)O)=C1CCCC(/C=C/C3=[N+](C)c4ccc5ccccc5c4C3(C)C)=C1O2` returned an emission maximum (in CCO) of 715 nm.

With `O=S(=O)(c1ccc(N2c3ccccc3N(c3ccccc3)c3ccccc32)cc1)c1ccc(N2c3ccccc3N(c3ccccc3)c3ccccc32)cc1`, the emission maximum was found to be 577 nm (in Cc1ccccc1) and 580 nm under setting [1].

Molecule `CN(C)c1ccc(-n2c(-c3ccncc3)nc3nccnc32)cc1` gave an emission maximum (in CC#N) of 405 nm.

The molecule `CCOC(=O)COc1ccc(/C=C/C2=C3C(C)=CC(C)=[N+]3[B-](F)(F)n3c2c2ccccc2c3-c2[nH]c(C)cc2C)cc1` had an emission maximum (in ClCCl) of 687 nm.

As for `C(=C\c1ccc(-n2c3ccccc3c3ccccc32)cc1)/c1ccc(-c2ccc(/C=C/c3ccc(-n4c5ccccc5c5ccccc54)cc3)cc2)cc1`, the emission maximum is, setting by setting: (in Cc1ccccc1) 420 nm; (in c1ccc2c(c1)c1ccccc1n2-c1ccc(-c2ccc(-n3c4ccccc4c4ccccc43)cc2)cc1) 438 nm.

In turn, `C[Si]1(C)C(c2ccccc2)=Cc2ccccc21` gave an emission maximum (in ClCCl) of 390 nm.

Molecule `CCCCCOc1cc2oc(=O)c3c4ccc(N)cc4c4ccc5cccc6c(c1)c2c3c4c56` came in with an emission maximum (in C1CCOC1) of 550 nm.

On to `Cc1cccc2nc3[nH]c(=O)[nH]c(=O)c3nc12`, for which the emission maximum (in CC#N) worked out at 452 nm.

Consider `c1ccc(N2c3ccc4ccccc4c3-c3c4ccccc4cn[n+]3[B-]2(c2ccccc2)c2ccccc2)cc1`, for which the emission maximum (in Cc1ccccc1) is reported as 657 nm.

Molecule `CCCCCCN1C(=O)c2cccc3cc(/N=C\c4cn(C)c5ccccc45)cc(c23)C1=O` returned an emission maximum (in ClC(Cl)Cl) of 500 nm.

`CCOC(=O)CN1C(=O)C2=C(c3ccc(C#N)cc3)N(CC(=O)OCC)C(=O)C2=C1c1ccccc1`: the emission maximum by setting is: (in CC#N) 538 nm; (in CS(C)=O) 547 nm; (in Cc1ccccc1) 544 nm.

Turning to `c1ccc(-c2ccc(-c3ccccc3)cc2)cc1`, the emission maximum turned out to be 340 nm (in C1CCOC1), 342 nm (in C1COCCO1) and 375 nm (in CCO).

The molecule `COc1cc(/C=C/c2nc3ccccc3s2)c(OC)cc1/C=C/c1nc(C)nc(C)n1` registered an emission maximum (in C1CCOC1) of 488 nm, an emission maximum (in CC#N) of 499 nm, an emission maximum (in ClC(Cl)Cl) of 494 nm and an emission maximum (in ClCCl) of 496 nm.

With `c1ccc(-c2c3ccccc3c(-c3ccc4ccccc4c3)c3ccccc23)nc1`, the emission maximum (in ClCCl) was found to be 431 nm.

For the molecule `CC1=CC(C)=[N+]2C1=C(c1ccc(-c3c4ccccc4c(-c4ccccc4)c4ccccc34)cc1)c1c(C)cc(C)n1[B-]2(F)F`, the emission maximum reads like this: (in CC#N) 508 nm; (in CCCCCC) 511 nm; (in CCO) 510 nm; (in CN(C)C=O) 510 nm; (in Cc1ccccc1) 515 nm; (in ClCCl) 512 nm.

`C(#Cc1ccccc1)C(C#Cc1ccccc1)=Cc1ccc(C=C(C#Cc2ccccc2)C#Cc2ccccc2)s1` registered an emission maximum (in ClC(Cl)Cl) of 528 nm.

On to `CC(=O)c1ccc(-c2cc(C)[o+]c(C)c2)cc1`, for which the emission maximum (in ClCCl) was 405 nm.

`COc1ccc(/C=C/c2nc(/C=C/c3ccc(N(C)C)cc3)cc(/C=C/c3ccc(N(C)C)cc3)n2)cc1`: the emission maximum reads like this: (in C1CCOC1) 522 nm; (in CC#N) 581 nm; (in CC(C)=O) 559 nm; (in CCCCCCC) 450 nm; (in CS(C)=O) 598 nm; (in Cc1ccccc1) 480 nm. In addition, the emission maximum (in ClCCl) was determined as 533 nm.

`COc1ccc(C2=C(c3ccc(-c4ccccc4)cc3)C(c3ccccc3)=[N+]3C2=Nc2c(-c4ccc(OC)cc4)c(-c4ccc(-c5ccccc5)cc4)c(-c4ccccc4)n2[B-]3(F)F)cc1` yielded an emission maximum (in Cc1ccccc1) of 716 nm.

As for `Cc1ccc(-c2oc3cccc4c5c(-c6ccc(C)cc6)/c(=N/S(=O)(=O)C(F)(F)F)oc6cccc(c2c34)c65)cc1`, the emission maximum (in ClC(Cl)Cl) is listed as 577 nm.

For `Cc1cccc2nc3c(=O)[nH]c(=O)[nH]c3nc12`, the emission maximum runs as follows: (in C1COCCO1) 437 nm; (in CC#N) 449 nm; (in CCO) 465 nm; (in CO) 469 nm; (in ClCCCl) 450 nm; (in O) 495 nm.

Turning to `CCCCCCCCCCCCN1C(=O)c2c(c3ccc4cc(-c5ccc(C#N)cc5)c(OC)cc4c3c3c2ccc2cc(-c4ccc(C#N)cc4)c(OC)cc23)C1=O`, the emission maximum (in ClCCl) amounted to 520 nm.

`Cc1cc2c(ccc3c(C)[n+](C)c(C)cc32)c(C)[n+]1C` returned an emission maximum (in CC#N) of 424 nm.

With `CC1=C(c2cccs2)C(C)=[N+]2C1=C(c1ccccc1)c1c(C)c(-c3cccs3)c(C)n1[B-]2(F)F`, the emission maximum runs as follows: (in CO) 610 nm; (in Cc1ccccc1) 609 nm; (in ClCCl) 609 nm.

On to `COc1ccc(-c2[nH]c(=O)n3c2-c2ccccc2C3=O)c(OC)c1`, for which the emission maximum is, setting by setting: (in CC#N) 492 nm; (in CO) 507 nm; (in ClCCl) 488 nm.
